Test results: patent US12291515B2, “Pyrrolidine derivative and use thereof” (Rushi Biotech (Hangzhou) Co., Ltd, priority 2021, dated 2025)

Legend:
Type in all cases: cell-based
[1] = system: Human pancreatic cancer cell CFPAC-1; test: CCK-8 cell proliferation assay, CFPAC-1; details: CFPAC-1 cells, CCK-8, 24 hrs with drug, OD 450 nm
Description: (§1) The effect of samples on the proliferation of human tumor cells in vitro was determined by CCK-8 cell proliferation assay.
(§2) The cells were assayed through a method including the following steps:
(§3) 1) The cells were digested, counted, and prepared into a cell suspension in a corresponding culture medium (Table 1) (5×10^4 cells/ml for CFPAC-1 and RPMI 8226, and 3.5×10^4 cells/ml for rest cells). The cell suspension was added to each well of a 96-well plate in 100 μl well.
(§4) 2) Then the 96-well plate was incubated for 24 hrs in an incubator at 37° C. and 5% CO2.
(§5) 3) The drug was diluted with the culture medium to the required working concentration. 100 μl of the corresponding drug containing medium was added to each well. A negative control group (added with drug-free culture medium) was also set.
(§6) 4) Then the 96-well plate was incubated for 24 hrs in an incubator at 37° C. and 5% CO2.
(§7) 5) The 96-well plate was stained with CCK-8, and The OD value was determined at λ=450 nm.
(§8) a) 10 μl of CCK-8 was added to each well, and incubated in the incubator for another 2-3 hrs.
(§9) b) The content was mixed uniformly by shaking gently on a shaker for 10 min, and the bubbles in the 96-well plate were removed.
(§10) 6) The inhibition rate in each group was calculated.

[2] = system: Human gastric cancer cell MKN45; test: CCK-8 cell proliferation assay, MKN-45; details: MKN-45 cells, CCK-8, 24 hrs with drug, OD 450 nm
Description: as §1, §2, §3, §4, §5, §6, §7, §8, §9, §10

[3] = system: Human colon cancer cell HCT-116; test: CCK-8 cell proliferation assay, HCT116; details: HCT116 cells, CCK-8, 24 hrs with drug, OD 450 nm
Description: as §1, §2, §3, §4, §5, §6, §7, §8, §9, §10

[4] = system: Human esophageal cancer cell TE-1; test: CCK-8 cell proliferation assay, TE-1; details: TE-1 cells, CCK-8, 24 hrs with drug, OD 450 nm
Description: as §1, §2, §3, §4, §5, §6, §7, §8, §9, §10

[5] = system: Human lung adenocarcinoma cell A549; test: CCK-8 cell proliferation assay, A549; details: A549 cells, CCK-8, 24 hrs with drug, OD 450 nm
Description: as §1, §2, §3, §4, §5, §6, §7, §8, §9, §10

[6] = system: Human multiple myeloma cell RPMI 8226; test: CCK-8 cell proliferation assay, RPMI8226; details: RPMI8226 cells, CCK-8, 24 hrs with drug, OD 450 nm
Description: as §1, §2, §3, §4, §5, §6, §7, §8, §9, §10

[7] = system: Human hepatoma cell HepG2; test: CCK-8 cell proliferation assay, HepG2; details: HepG2 cells, CCK-8, 24 hrs with drug, OD 450 nm
Description: as §1, §2, §3, §4, §5, §6, §7, §8, §9, §10

Compound	IC50 [1] [µM]	IC50 [2] [µM]	IC50 [3] [µM]	IC50 [4] [µM]	IC50 [5] [µM]	IC50 [6] [µM]	IC50 [7] [µM]
COc1cccc(OC)c1C(=O)N1CCC(CCCCCCNC(=O)Nc2cc(F)nc(F)c2)C1 (stereo not drawn) [BSS-TP125]	0.047	0.057	0.049	0.043	0.046	0.028	0.052
COc1cccc(OC)c1C(=O)N1CCC(CCCCCCCNC(=O)Nc2ccncc2)C1 (stereo not drawn) [BSS-TP126, 1-(7-(1-(2,6-dimethoxybenzoyl)pyrrolidin-3-yl)heptyl)-2-(4-pyridinyl) urea]	0.053	0.032	0.063	0.088	0.055	0.033	0.092
COc1cccc(OC)c1C(=O)N1CCC(CCCCNC(=O)Nc2ccncc2)C1 (stereo not drawn) [BSS-TP127, 1-(4-(1-(2,6-dimethoxybenzoyl)pyrrolidin-3-yl)butyl)-2-(4-pyridinyl) urea]	0.058	0.109	0.076	0.135	0.075	0.034	0.102
O=C(NCCCCCCCC1CCN(C(=O)c2ccco2)C1)Nc1ccncc1 (stereo not drawn) [BSS-TP128, 1-(7-(1-(furoyl)pyrrolidin-3-yl)heptyl)-2-(4-pyridinyl)urea]	0.053	0.051	0.097	0.124	0.068	0.036	0.11
O=C(NCCCCCCCC1CCN(C(=O)c2ccc[nH]2)C1)Nc1ccncc1 (stereo not drawn) [BSS-TP129, 1-(7-(1-(2-pyrrolylformyl)pyrrolidin-3-yl)heptyl)-2-(4-pyridinyl)urea]	0.028	0.049	0.072	0.096	0.073	0.023	0.093
COc1cccc(OC)c1C(=O)N1CCC(CCCCCCCNC(=O)Nc2ccnc(F)c2)C1 (stereo not drawn) [BSS-TP130]	0.043	0.073	0.046	0.061	0.056	0.038	0.055
O=C(NCCCCCCCC1CCN(C(=O)c2ccccc2)C1)Nc1ccncc1 (stereo not drawn) [BSS-TP131]	0.036	0.047	0.075	0.069	0.043	0.029	0.067
O=C(NCCCCCCCC1CCN(C(=O)c2ccccc2)C1)Nc1ccnc(F)c1 (stereo not drawn) [BSS-TP132]	0.03	0.039	0.065	0.077	0.051	0.034	0.061
O=C(/C=C/c1cccnc1)NCCCCC1CCN(C(=O)c2ccccc2)CC1 [FK866, reference compound]	0.037	0.039	0.092	0.112	0.037	0.02	0.099
